Literature values as cited in patent US9326539B2, “Compositions comprising dietary fat complexers and methods for their use” (Soho Flordis International Pty. Ltd., priority 2002, dated 2016).

Details: cited from earlier work

OC[C@H]1O[C@@H]2O[C@H]3[C@H](O)[C@@H](O)[C@@H](O[C@H]4[C@H](O)[C@@H](O)[C@@H](O[C@H]5[C@H](O)[C@@H](O)[C@@H](O[C@H]6[C@H](O)[C@@H](O)[C@@H](O[C@H]7[C@H](O)[C@@H](O)[C@@H](O[C@H]1[C@H](O)[C@H]2O)O[C@@H]7CO)O[C@@H]6CO)O[C@@H]5CO)O[C@@H]4CO)O[C@@H]3CO [α-cyclodextrin]
weight gain of rats versus control diet (JP 05-298849, diet with 16% a-cyclodextrin, or 1% linolenic acid, or 14% α-cyclodextrin and 2% linolenic acid): gain weight approximately the same as rats fed a control diet | body weight gain of rats versus control diets (Kaewprasert et al. 2001, 5% α-cyclodextrin diet, cyclodextrin:fat about 1:1.4): not significantly different | weight gain of rats (S60-149752, diet with 14% w/w α-cyclodextrin, or 14% w/w α-cyclodextrin and 0.5% w/w linolenic acid): little effect on weight gain
